As usually defined, the IC50 is the point on the concentration scale where inhibition reaches its midpoint. A high value points to weaker potency in that assay.

human AD brain homogenates, sequence (P05067 672-711 limits assumed): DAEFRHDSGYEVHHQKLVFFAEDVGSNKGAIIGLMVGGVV

The target in the assay is human AD brain homogenates (Homo sapiens, UniProt P05067). Nature of the assay: Tissue homogenate binding assay (competition with [3H]-DMAB). Conditions: human AD brain (frontal cortex) tissue homogenate; radioligand [3H]-DMAB 1.5 nM; 90 minutes at room temperature. The protocol:
Homogenates from AD and non-AD human brain samples were assessed for their immunoreactivity to anti-Aβ antibody 6E10. The highest and lowest levels of 6E10 immunoreactivity were chosen for the AD group and the non-AD control group, respectively. Candidate Aβ compounds were initially selected based on their structural similarity to published amyloid ligands and then for high affinity in competing with [^3H]PIB binding to AD brain homogenates. These compounds were radiolabeled with [^3H] and tested for binding affinity to human AD brain homogenates as well as binding to human non-AD brain homogenates. [^3H]-DMAB (see structure below) was selected based from these candidates based on its binding affinity for human AD brain homogenates, and minimal binding to non-AD control homogenates. A low fraction of non-displaceable binding was also an important criterion.
PET radiotracer candidate compounds were then selected based on their high affinity competition with [^3H]-DMAB in binding to AD brain homogenates. These PET radiotracer candidate compounds were tested to determine if they were effective PgP substrates. Those PET radiotracer candidate compounds with little PgP substrate activity were radiolabeled with [^3H] or [^18F] and tested for binding affinity to human AD brain homogenates as well as binding to human non-AD brain homogenates and in autoradiographic studies using human AD and non-AD brain slices. Candidate radioligands were selected based on their strong binding affinity for human AD brain homogenates, and minimal binding to non-AD control homogenates. A low fraction of non-displaceable binding was also an important criterion. Minimization of white matter binding was an important criterion.
Postmortem frozen human brain samples from donors with clinical diagnosis of Alzheimer's diseases (AD) or normal control subjects (non-AD) were purchased from Analytical Biological Services Inc., at 701-4 Cornell Business Park, Wilmington, Del. […]
[^3H]-DMAB was synthesized at a specific activity of ˜80 Ci/mmol. […] Total binding was defined in the absence of competing compound, and non-displaceable binding was determined in the presence of 1 μM unlabeled self block. […] Incubation was carried out at room temperature (25° C.) for 90 minutes, and then the assay samples were filtered onto GF/C filters using Skatron 12 well harvester, washing on setting 5−5−5 ((˜3×2 ml) ice cold buffer (PBS, pH 7.4). GF/C filter papers for the Skatron harvester were pre-soaked in 0.1% BSA for 1 hour at room temperature before use. Filters were punched into scintillation vials and counted in 2 mL Ultima Gold on Perkin Elmer Tri-Carb 2900TR for 1 minute. The data analysis was done with Prism software. All assays were done in triplicate, and in the laboratory designated for studies using human tissues.
As for `Cc1ccc2cc(-c3ccc(-n4ccnc4)nc3)[nH]c2c1`, the IC50 is 245 nM.

Compound `CNc1ccc(-c2cc3ccc(Cl)cc3[nH]2)cn1` yielded an IC50 of 40 nM.

`COc1ccc2[nH]c(-c3ccc(-n4cncn4)nc3)cc2c1`: the concentration for half-maximal inhibition (IC50) was 10 nM.

In turn, `N#Cc1ccc2cc(-c3cnc4[nH]ccc4c3)[nH]c2c1` yielded a half-inhibitory concentration (IC50) of 79 nM.

For the origin of these results see patent US20110076230A1, “Novel Substituted Indoles” (priority 2008, published 2011).
